In patent US20050272822A1 (priority 2001, published 2005):
Where a name gives a salt, the structure may show the parent alone.

Columns and labels:
[1] = Stability in moist environments and in processes involving water; format: physicochemical
[2] = Water vapor sorption/desorption (dynamic vapor sorption); settings: two water sorption/desorption cycles, 25° C.
Experimental: The sample weight changes were monitored as function of the time and relative humidity. Two identical relative humidity-time experiment cycles (0 to 90% relative humidity) were performed to detect any changes in solid-state properties.

[3] = tested on: monoamine oxidase; settings: cited from earlier work
[4] = tested on: muscaranic receptors; settings: in vitro; cited from earlier work
[5] = tested on: adrenergic receptors; settings: in vitro; cited from earlier work
[6] = tested on: histaminergic receptors; settings: in vitro; cited from earlier work

SMILES | stability in moist environments ([1]; atmospheres having at least 20% relative humidity) | stability in processes involving water compared with known forms ([1]; processes involving water, such as wet granulation) | solid-state transition during dehydration/hydration cycling [2] | inhibitory activity on monoamine oxidase [3] | affinity for muscaranic receptors [4] | affinity for adrenergic receptors [5] | affinity for histaminergic receptors [6]
COc1ccc(C(CN(C)C)C2(O)CCCCC2)cc1 (stereo not shown) [venlafaxine hydrochloride monohydrate] | stable | more stable than known forms | reversible | – | – | – | –
COc1ccc(C(CN(C)C)C2(O)CCCCC2)cc1 (stereo not shown) [venlafaxine, 1-[2-(dimethylamino)-1-(4-methoxyphenyl)ethyl]cyclohexanol] | – | – | – | no inhibitory activity | virtually no affinity | virtually no affinity | virtually no affinity
